The text below walks through data of patent US5015631A, “Repairing agent for cells and tissues” (MECT Corporation, priority 1987, dated 1991).

Read-outs that look alike come from different tables or passages of the source.

The subject of series [1] is nasal mucous membrane of rabbits. Put plainly: Subacute disappearance of cilia from nasal mucous membrane of rabbits and degeneration of the epithelium induced by exposure to sulfur dioxide. As to disappearance of cilia: key: -: Unchanged; +: Slight; ++: Moderate change; +++: Severe. Format: in vivo, Male New Zealand White rabbits. Here is the method: Effects on subacute disappearance of cilia from nasal mucous membrane of rabbits and degeneration of the epithelium thereof induced by exposure to sulfur dioxide:
Male New Zealand White rabbits weighing 1.8 to 2.2 kg were used.
(§1) Sodium N-acetylneuraminate (a product of MECT Corporation) was used.
The rabbits were exposed to sulfur dioxide by means of a sulfur dioxide-exposing apparatus for 2 hours a day continuously for 5 weeks. The sulfur dioxide concentrations were 70 to 150 ppm in the first and second weeks and 200 to 300 ppm in the third to fifth weeks. After the third week, the inhalation of the material or physiological saline by means of an ultrasonic nebulizer (TUR-3200: a product of Nippon Koden Co., Ltd.) was made immediately before the exposure to sulfur dioxide.
Group I: inhalation of 25 mg/kg of sodium N-acetylneuraminate for 2 minutes.
Group II: inhalation of 1 ml of physiological saline for 2 minutes.
Each group comprised six rabbits.
Five weeks after completion of the exposure to sulfur dioxide, the rabbits were killed by venesection and the intranarial changes of them were examined by a microscopic observation and the results were compared with one another.

The subject of series [2] is nasal mucous membranes of rats. Put plainly: Acute disappearance of cilia from nasal mucous membranes of rats and degeneration of the epithelium induced by exposure to sulfur dioxide. As to Disappearance of epithelium: key: -: Unchanged; +: Slight; ++: Moderate change; +++: Severe. As to Monolayer squamous metaplasia of epithelium: key: -: Unchanged; +: Slight; ++: Moderate change; +++: Severe. As to disappearance of cilia: key: -: Unchanged; +: Slight; ++: Moderate change; +++: Severe. Format: in vivo, Male Wistar rats. The note with it: for Disappearance of cilia / Disappearance of epithelium / Monolayer squamous metaplasia of epithelium: per animal. Here is the method: The effects of test samples on acute disappearance of cilia from nasal mucous membranes of rats and the degeneration of the epithelium induced by exposure to sulfur dioxide:
Male Wistar rats weighing 180 to 200 g were used.
as §1
The rats were exposed to 400 ppm of sulfur dioxide for 4 hours. 30 minutes after the exposure, the rats were caused to inhale the test sample or physiological saline as follows:
Group I: inhalation of 300 mg/m^3 of sodium N-acetylneuraminate for 1 hour.
Group II: inhalation of 100 mg/m^3 of sodium N-acetylneuraminate for 1 hour.
Group III: inhalation of 20 ml/m^3 of the physiological saline for 1 hour.
Each group comprised 5 rats.
24 hours after the inhalation of the materials or physiological saline, the rats were killed and their intranarial changes were examined by a microscopic observation and the results were compared with one another.

The nature of another series: Stability versus pH. It counts as physicochemical.
Another series deals with mice. Put plainly: Acute toxicity test in mice. The note with it: male, 20160 min. It counts as in vivo. Here is the method: (§2) The acute toxicity tests of sodium N-acetylneuraminate to mice, rats and guinea pigs given by oral administration or subcutaneous injection, intraperitoneal injection, intravenous injection or inhalation, were conducted as follows:
(§3) 20 w/v % (solution in distilled water)

The next series deals with rats. Put plainly: Acute toxicity test in rats. It counts as in vivo. Here is the method: as §2, §3
In the inhalation, the subjects were exposed to a spray of the compound o

Where [3] appears, read: Group I: inhalation 25 mg/kg for 2 minutes, per animal.
The mark [4] stands for this setting: Group I: inhalation 300 mg/m^3 for 1 hour.
[5] abbreviates: Group II: inhalation 100 mg/m^3 for 1 hour.

Regarding `CC(=O)N[C@H]1[C@H]([C@H](O)[C@H](O)CO)OC(O)(C(=O)[O-])C[C@@H]1O.[Na+]` (some centres unmarked), the “Squamous metaplasia of epithelium, comparison of groups” value in series [1] (Group I (25 mg/kg) versus Group II (physiological saline)) is on record as “more serious in Group II than in Group I”. For the same compound, the Disappearance of cilia entry was “- and + and ++” in series [1] (setting [3]); “++ and +” in series [2] (setting [4]); “+ and - and ++” in series [2] (setting [5]). The “Squamous metaplasia of epithelium” value in series [1] (setting [3]) was “- and + and ++”. For the same compound, in series [1] (sulfur dioxide exposure, 25 mg/kg inhalation), the “Inhibition of subacute disappearance of cilia and squamous metaplasia of epithelium / repair of cells and tissues of nasal mucous membranes” value is reported as “remarkable effect of inhibiting”. For the same compound, the Disappearance of epithelium entry in series [2] (setting [4]) and in series [2] (setting [5]) was “-” each time. Besides, the “Monolayer squamous metaplasia of epithelium” value in series [2] (setting [4]) and in series [2] (setting [5]) was “-” each time. Besides, the “Intranarial changes” value in series [2] (Groups I and II (300 and 100 mg/m^3), compared with Group III (physiological saline)) is “only the disappearance of cilia was observed and the degree of the disappearance was lower than that of Group III”. Also, in series [2] (sulfur dioxide exposure, rats), the “Inhibition of acute disappearance of cilia, monolayer squamous metaplasia and disappearance of epithelium / degeneration of nasal mucous membranes” value is “remarkable effect of inhibiting”. Also, the “pH range of greatest stability” value in the series “Stability versus pH” lay within 5.5 to 6.0. Also, the LD50 is given as > 5,000 mg/kg with mice (intraperitoneal); > 5,000 mg/kg in the series on mice (intravenous); > 5,000 mg/kg in the series on mice (oral); > 5,000 mg/kg in the series on mice (subcutaneous); > 5,000 mg/kg in the series on rats; > 4,000 mg/m^3 with rats (rats, female, inhalation, spray for one hour). The LD50 in the series with rats (rats, male, inhalation, spray for one hour) is on record as > 4,000 mg/m^3; with rats (rats, male, intraperitoneal, 20160 min) it was > 5,000 mg/kg; with rats (rats, male, intravenous, 20160 min) it was > 5,000 mg/kg; in the series with rats (rats, male, oral, 20160 min) it was > 5,000 mg/kg.
